Among the data in US7977358B2, “Pyrazol derivatives” (Hoffmann-La Roche Inc., priority 2007, dated 2011) are IC50 values, retold here.

The test concerns the target T1, human chemokine receptor 2 isoform B (CCR2B) (Homo sapiens, UniProt P41597).
T1 construct: host or cells: CHOK1-CCR2B-A5 (CHO-K1) cells
T1 sequence (P41597 1-360 isoform P41597-2): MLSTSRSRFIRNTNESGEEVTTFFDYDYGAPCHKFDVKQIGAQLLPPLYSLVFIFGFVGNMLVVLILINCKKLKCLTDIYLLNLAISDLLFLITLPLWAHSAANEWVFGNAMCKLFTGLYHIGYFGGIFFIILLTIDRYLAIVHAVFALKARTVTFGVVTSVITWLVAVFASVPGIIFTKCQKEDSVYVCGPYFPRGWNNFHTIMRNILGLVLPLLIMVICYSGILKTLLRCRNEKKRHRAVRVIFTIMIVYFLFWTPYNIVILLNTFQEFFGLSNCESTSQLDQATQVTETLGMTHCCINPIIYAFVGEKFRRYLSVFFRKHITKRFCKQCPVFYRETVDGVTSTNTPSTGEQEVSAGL
The test can be described thus: Calcium mobilization assay. The test is classed as cell-based. The note with it: CHOK1-CCR2B-A5 cells, 20 nM MCP-1, FLIPR. On the procedure: Calcium Mobilization Assay
CHOK1-CCR2B-A5 cells (from Euroscreen) stably overexpressing the human chemokine receptor 2 isoform B were cultured in Nutrient Hams F12 medium supplemented with 5% FBS, 100 U/ml penicillin, 100 μg/ml streptomycin, 400 μg/ml G418 and 5 μg/ml puromycin. For the assay cells were grown overnight in 384-well black clear flat bottom polystyrene plates (Costar) at 37° C. at 5% CO2. After washing with DMEM, 20 mM Hepes, 2.5 mM probenecid, 0.1% BSA (DMEM assay buffer) cells were loaded with 4 μM Fluo-4 in the same DMEM assay buffer for 2 hours at 30° C. Excess dye was removed and cells were washed with DMEM assay buffer. 384-well compound plates were prepared with DMEM assay buffer/0.5% DMSO with or without various concentrations of test compounds. Usually compounds were tested for agonist and antagonist activity.
Test compounds were added to the assay plate and agonist activity was monitored as fluorescence for 80 seconds with a FLIPR (488 nm excitation; 510-570 nm emission; Molecular Devices). After 20-30 min. of incubation at 30° C., 20 nM MCP-1 (R&D; Roche) was added and fluorescence was monitored again for 80 seconds. Increases in intracellular calcium are reported as maximum fluorescence after agonist exposure minus basal fluorescence before exposure. Antagonist activity is indicated as inhibitor concentration required for 50% inhibition of specific calcium increases.

Each structure is given as a SMILES string.

What is called IC50 is the concentration that inhibits the measured activity by half. Turning to `Cc1nn(-c2cccc(OC(F)(F)F)c2)c(C2CC2)c1C(=O)N1CCC(N2C[C@@H](O)CC2C)CC1` (stereo in doubt) [Example 138, [5-Cyclopropyl-3-methyl-1-(3-trifluoromethoxy-phenyl)-1H-pyrazol-4-yl]-[4-((2R,4S)-4-hydroxy-2-methyl-pyrrolidin-1-yl)-piperidin-1-yl]-methanone], the half-inhibitory concentration (IC50) worked out at 0.154 µM. The result for `CCN(CC)C1CCN(C(=O)c2c(C)nn(-c3cccc(/C=C/c4ccc(Cl)cc4)c3)c2C)C1` (centres unmarked) [Example 29, (1-{3-[(E)-2-(4-Chloro-phenyl)-vinyl]-phenyl}-3,5-dimethyl-1H-pyrazol-4-yl)-(3-diethylamino-pyrrolidin-1-yl)-methanone] reads 0.1 µM. For the molecule `O=C(c1c(C2CC2)nn(-c2cccc(OC(F)(F)F)c2)c1C1CC1)N1CCC(N2CCCC2)CC1` [Example 76, [3,5-Dicyclopropyl-1-(3-trifluoromethoxy-phenyl)-1H-pyrazol-4-yl]-(4-pyrrolidin-1-yl-piperidin-1-yl)-methanone], the IC50 is 0.122 µM. As to `Cc1nn(-c2cccc(C(F)(F)F)c2)c(C)c1C(=O)N1CCC(N2CCOCC2)CC1` [Example 83, [3,5-Dimethyl-1-(3-trifluoromethyl-phenyl)-1H-pyrazol-4-yl]-(4-morpholin-4-yl-piperidin-1-yl)-methanone], the IC50 came to 0.658 µM. The figure for `CC(=O)N[C@@H]1CCN(C2CCN(C(=O)c3c(C)nn(-c4cccc(OC(F)(F)F)c4)c3C)CC2)C1` [Example 119, N-((R)-1-{1-[3,5-Dimethyl-1-(3-trifluoromethoxy-phenyl)-1H-pyrazole-4-carbonyl]-piperidin-4-yl}-pyrrolidin-3-yl)-acetamide] is 0.306 µM; for `Cc1nn(-c2cccc(OC(F)(F)F)c2)c(C)c1C(=O)N1CCC(N2CCCC2C)C1` (centres unmarked) [Example 122, [3,5-Dimethyl-1-(3-trifluoromethoxy-phenyl)-1H-pyrazol-4-yl]-(2-methyl-[1,3′]bipyrrolidinyl-1′-yl)-methanone] it is 0.73 µM. The result for `Cc1nn(-c2cccc(OC(F)(F)F)c2)c(C2CC2)c1C(=O)N1CCC(N2CCC3(C2)NC(=O)NC3=O)CC1` (centres unmarked) [Example 139, 7-{1-[5-Cyclopropyl-3-methyl-1-(3-trifluoromethoxy-phenyl)-1H-pyrazole-4-carbonyl]-piperidin-4-yl}-1,3,7-triaza-spiro[4.4]nonane-2,4-dione] reads 0.141 µM. In the case of `Cc1c(C(=O)N2CCC(N3CCC[C@H]3CO)CC2)c(-c2ccncc2)nn1-c1cccc(OC(F)(F)F)c1` [Example 161, [4-((S)-2-Hydroxymethyl-pyrrolidin-1-yl)-piperidin-1-yl]-[5-methyl-3-pyridin-4-yl-1-(3-trifluoromethoxy-phenyl)-1H-pyrazol-4-yl]-methanone], the IC50 was found to be 0.0972 µM.
